Results reported in patent US9028845B2, “Chimeric immunomodulatory compounds and methods of using the same-IV” (Dynavax Technologies Corporation, priority 2001, dated 2015).
Strand notation (5' to 3'): a small letter for the sugar, then the base; units joined by * are phosphorothioate-linked, units joined directly phosphodiester-linked; [ ] holds rarer units or linkages, { } end groups; capitals alone tell only the bases. d = 2'-deoxy (DNA)

Columns and labels:
mouse splenocytes = experiment: Mouse splenocyte cytokine secretion (IL-6, IL-12, IFN by ELISA); format: cell-based, BALB/c mice; set-up: IFN: unit not given beside the values; details: 24 h
Procedure: Polynucleotides and chimeric compounds were tested for immunostimulatory activity on mouse splenocytes. Immunostimulation was assessed by measurement of cytokine secretion into the culture media. Cytokine levels in the culture supernatant were determined by enzyme-linked immunosorbent assay (ELISA) tests.
Cells were isolated and prepared using standard techniques. Spleens of 8 to 20 week-old BALB/c mice were harvested and the splenocytes isolated using standard teasing and treatment with ACK lysing buffer from BioWhittaker, Inc. Four spleens were pooled in this experiment. Isolated cells were washed in RPMI 1640 media supplemented with 2% heat-inactivated fetal calf serum (FCS), 50 μM 2-mercaptoethanol, 1% penicillin-streptomycin, and 2 mM L-glutamine and resuspended at approximately […] in 10% FCS/RPMI (RPMI 1640 media with 10% heat-inactivated FCS, 50 μM 2-mercaptoethanol, 1% penicillin-streptomycin, and 2 mM L-glutamine).
Cell cultures were set up in triplicate with approximately 7×10^5 cells/well in a 96-well flat microtiter plate in 100 μl 10% FCS/RPMI with the cells allowed to rest for at lest 1 hour after plating. The indicated test compounds were incubated (at the indicated concentrations) for 24 hours at 37° C. Cell supernatants were harvested and frozen at −80° C. Cytokine production by the cells was determined by ELISAs, as shown in 19.

mice = experiment: Serum cytokines (IL-12 p40, IL-6, TNF-α) after subcutaneous injection in mice; format: in vivo; details: 20 ug subcutaneous, blood 2 hours later
Procedure, shortened: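 Blood was taken 2 h after subcutaneous injection. LPS positive-control mice were dosed intraperitoneally and bled at 1.5 h, at the peak of TNF-α. Sera were stored at −80° C and TNF-α, IL-6 and IL-12 were measured by immunoassay kits or antibody pairs in duplicate.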

CD19+ B cells = experiment: Human B cell proliferation assay (3H-thymidine incorporation); details: 2 μg/ml; for cpm1 / cpm2 / cpm3 / mean cpm / mean of both: B cells

For “5′-TGACTGTGAACCTTAGAGATGA-3′ (SEQ ID NO: 3) (dT*dG*dA*dC*dT*dG*dT*dG*dA*dA*dC*dC*dT*dT*dA*dG*dA*dG*dA*dT*dG*dA) [Compound P-7, reference compound]”, the IFN (mouse splenocytes; dose 1.0 μg/ml) was 30, the IL-6 (mouse splenocytes; dose 1.0 μg/ml) was 7 and the IL-12 (mouse splenocytes; dose 1.0 μg/ml) was 143. It also gave an IFN (mouse splenocytes; dose 5.0 μg/ml) of 23, an IL-6 (mouse splenocytes; dose 5.0 μg/ml) of 9 and an IL-12 (mouse splenocytes; dose 5.0 μg/ml) of 177. For the same substance, the “induction of serum IL-12 p40, IL-6 and TNF-α, in words” value (mice) was “inactive”, the “B cell proliferation, in words” value (CD19+ B cells; 48 h plus 8 h 3H-thymidine pulse) was “little to no B cell proliferation” and the cpm1 (CD19+ B cells; Donor 146, Experiment A) was 4858 cpm. The cpm2 (CD19+ B cells; Donor 146, Experiment A) was 5810 cpm, the cpm3 (CD19+ B cells; Donor 146, Experiment A) was 7079 cpm and the mean cpm (CD19+ B cells; Donor 146 mean, Experiment A) was 5916 cpm. For the same substance, the cpm1 (CD19+ B cells; Donor 147, Experiment A) was 4364 cpm, the cpm2 (CD19+ B cells; Donor 147, Experiment A) was 4066 cpm and the cpm3 (CD19+ B cells; Donor 147, Experiment A) was 2774 cpm. For the same substance, the mean cpm (CD19+ B cells; Donor 147 mean, Experiment A) was 3735 cpm, the cpm1 (CD19+ B cells; donor 121, Experiment B) was 1623 cpm and the cpm2 (CD19+ B cells; donor 121, Experiment B) was 1821 cpm. The cpm3 (CD19+ B cells; donor 121, Experiment B) was 2901 cpm, the mean cpm (CD19+ B cells; donor 121 mean, Experiment B) was 2115 cpm and the cpm1 (CD19+ B cells; donor 194, Experiment B) was 1992 cpm. The cpm2 (CD19+ B cells; donor 194, Experiment B) was 1593 cpm, the cpm3 (CD19+ B cells; donor 194, Experiment B) was 1686 cpm and the mean cpm (CD19+ B cells; donor 194 mean, Experiment B) was 1757 cpm. It also gave a mean of both (CD19+ B cells; mean of Donors 146 and 147, Experiment A) of 4825 cpm and a mean of both (CD19+ B cells; mean of donors 121 and 194, Experiment B) of 1936 cpm.
